Test results from ChEMBL document CHEMBL1201862, “PubChem BioAssay data set” (2004).
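Five concentrations, 48 hours, 96-well plates. GI50 = concentration required for 50% inhibition of growth.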 Activity calls are given as the source filed them. Cut-off read from the data, not from the text of the source: active = GI50 up to about 1.1 µM and inactive = higher.

Tests used:
Assay in all cases: growth of human tumour cells (NCI), 48 h
HT-29 = test system: HT-29
SK-MEL-28 = test system: SK-MEL-28
COLO 205 = test system: COLO 205
OVCAR-3 = test system: OVCAR-3
SK-OV-3 = test system: SK-OV-3
U-251 = test system: U-251
HOP-18 = test system: HOP-18
LOX IMVI = test system: LOX IMVI
KM12 = test system: KM12
HOP-92 = test system: HOP-92
OVCAR-8 = test system: OVCAR-8
DMS-114 = test system: DMS-114
HCC 2998 = test system: HCC 2998
SK-MEL-5 = test system: SK-MEL-5
SF-295 = test system: SF-295
786-0 = test system: 786-0
RXF 393 = test system: RXF 393
CCRF-CEM = test system: CCRF-CEM
SN12C = test system: SN12C
EKVX = test system: EKVX
CAKI-1 = test system: CAKI-1
RPMI-8226 = test system: RPMI-8226
K562 = test system: K562
UACC-62 = test system: UACC-62
UACC-257 = test system: UACC-257
TK-10 = test system: TK-10
HL-60 = test system: HL-60
DMS-273 = test system: DMS-273
OVCAR-5 = test system: OVCAR-5
NCI-H460 = test system: NCI-H460
DLD-1 = test system: DLD-1
SF-268 = test system: SF-268
UO-31 = test system: UO-31
OVCAR-4 = test system: OVCAR-4
LXFL 529 = test system: LXFL 529
HCT-15 = test system: HCT-15
M14 = test system: M14
NCI-H226 = test system: NCI-H226
MOLT-4 = test system: MOLT-4
NCI-H23 = test system: NCI-H23
Malme-3M = test system: Malme-3M
KM-20L2 = test system: KM-20L2
HCT-116 = test system: HCT-116
SNB-78 = test system: SNB-78
SNB-19 = test system: SNB-19
SW-620 = test system: SW-620
NCI-H522 = test system: NCI-H522
SF-539 = test system: SF-539
SR = test system: SR
ACHN = test system: ACHN
A549 = test system: A549
M19-MEL = test system: M19-MEL
SK-MEL-2 = test system: SK-MEL-2

`COc1cc(C=C2C(=O)OC(C)(C)OC2=O)cc(OC)c1OC` was tested, and the GI50 (HT-29) was > 100 µM (inactive), the GI50 (SK-MEL-28) was > 100 µM (inactive) and the GI50 (COLO 205) was > 100 µM (inactive). For the same compound, the GI50 (OVCAR-3) was > 100 µM (inactive), the GI50 (SK-OV-3) was > 100 µM (inactive) and the GI50 (U-251) was > 100 µM (inactive). For the same compound, the GI50 (HOP-18) was > 100 µM (inactive), the GI50 (LOX IMVI) was > 100 µM (inactive) and the GI50 (KM12) was > 100 µM (inactive). For the same compound, the GI50 (HOP-92) was > 100 µM (inactive), the GI50 (OVCAR-8) was > 100 µM (inactive) and the GI50 (DMS-114) was > 100 µM (inactive). For the same compound, the GI50 (HCC 2998) was > 100 µM (inactive), the GI50 (SK-MEL-5) was > 100 µM (inactive) and the GI50 (SF-295) was > 100 µM (inactive). For the same compound, the GI50 (786-0) was > 100 µM (inactive), the GI50 (RXF 393) was > 100 µM (inactive) and the GI50 (CCRF-CEM) was > 100 µM (inactive). The GI50 (SN12C) was > 100 µM (inactive), the GI50 (EKVX) was > 100 µM (inactive) and the GI50 (CAKI-1) was > 100 µM (inactive). For the same compound, the GI50 (RPMI-8226) was > 100 µM (inactive), the GI50 (K562) was > 100 µM (inactive) and the GI50 (UACC-62) was > 100 µM (inactive). For the same compound, the GI50 (UACC-257) was > 100 µM (inactive), the GI50 (TK-10) was > 100 µM (inactive) and the GI50 (HL-60) was > 100 µM (inactive). For the same compound, the GI50 (DMS-273) was > 100 µM (inactive), the GI50 (OVCAR-5) was > 100 µM (inactive) and the GI50 (NCI-H460) was > 100 µM (inactive). For the same compound, the GI50 (DLD-1) was > 100 µM (inactive), the GI50 (SF-268) was > 100 µM (inactive) and the GI50 (UO-31) was > 100 µM (inactive). For the same compound, the GI50 (OVCAR-4) was > 100 µM (inactive), the GI50 (LXFL 529) was > 100 µM (inactive) and the GI50 (HCT-15) was > 100 µM. For the same compound, the GI50 (M14) was > 100 µM (inactive), the GI50 (NCI-H226) was > 100 µM (inactive) and the GI50 (MOLT-4) was > 100 µM (inactive). For the same compound, the GI50 (NCI-H23) was > 100 µM (inactive), the GI50 (Malme-3M) was > 100 µM (inactive) and the GI50 (KM-20L2) was > 100 µM (inactive). The GI50 (HCT-116) was > 100 µM (inactive), the GI50 (SNB-78) was > 100 µM (inactive) and the GI50 (SNB-19) was > 100 µM (inactive). The GI50 (SW-620) was > 100 µM (inactive), the GI50 (NCI-H522) was > 100 µM (inactive) and the GI50 (SF-539) was > 100 µM (inactive). The GI50 (SR) was > 100 µM (inactive), the GI50 (ACHN) was > 100 µM (inactive) and the GI50 (A549) was > 100 µM (inactive). For the same compound, the GI50 (M19-MEL) was > 100 µM (inactive) and the GI50 (SK-MEL-2) was > 100 µM (inactive).
